This note sets out measurements from patent US6525059B1, “Substituted pyrazoles as p38 kinase inhibitors” (G. D. Searle & Company, priority 1998, dated 2003).

What is called IC50 is the concentration at which inhibition is half-maximal.

Where only a bound is given, the exact number is not on record here.

The target of one assay is T1, human p38 kinase alpha (Homo sapiens, UniProt Q16539).
T1 construct: The coding region of the human p38a cDNA was obtained by PCR-amplification from RNA isolated from the human monocyte cell line THP.1; GST (N); made in house; host or cells: E. coli DH10B
T1 sequence (Q16539 whole entry): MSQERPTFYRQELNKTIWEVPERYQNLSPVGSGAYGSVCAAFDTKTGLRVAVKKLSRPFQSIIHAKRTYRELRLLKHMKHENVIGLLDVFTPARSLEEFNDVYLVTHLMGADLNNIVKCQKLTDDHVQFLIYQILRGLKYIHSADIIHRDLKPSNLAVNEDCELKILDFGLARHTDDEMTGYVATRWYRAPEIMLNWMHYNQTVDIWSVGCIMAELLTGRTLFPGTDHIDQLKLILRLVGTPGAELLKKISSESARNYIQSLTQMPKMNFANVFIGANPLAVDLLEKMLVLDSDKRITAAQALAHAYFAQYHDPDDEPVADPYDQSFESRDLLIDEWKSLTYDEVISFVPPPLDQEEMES
Put plainly: p38 kinase in vitro assay, phosphorylation of biotinylated PHAS-I with gamma 32P-ATP. The assay is classed as biochemical. Conditions: @ 1.0 uM. The protocol: The ability of compounds to inhibit human p38 kinase alpha was evaluated using two in vitro assay methods. In the first method activated human p38 kinase alpha phosphorylates a biotinylated substrate, PHAS-I (phosphorylated heat and acid stable protein-insulin inducible), in the presence of gamma ^32P-ATP (^32P-ATP). PHAS-I was biotinylated prior to the assay and provides a means of capturing the substrate which is phosphorylated during the assay. p38 Kinase was activated by MKK6. Compounds were tested in 10 fold serial dilutions over the range of 100 μM to 0.001 μM using 1% DMSO. Each concentration of inhibitor was tested in triplicate.
All reactions were carried out in 96 well polypropylene plates. Each reaction well contained 25 mM HEPES pH 7.5, 10 mM magnesium acetate and 50 μM unlabeled ATP. […] The reaction proceeded either for one hour or overnight at 30° C.
Following incubation, 20 μl of reaction mixture was transferred to a high capacity streptavidin coated filter plate (SAM-streptavidin-matrix, Promega) prewetted with phosphate buffered saline. […] Filter plates were air dried and 20 μl of scintillant was added. The plates were sealed and counted.
As to `O=C(NCc1[nH]nc(-c2ccc(F)cc2)c1-c1ccncc1)C(F)(F)C(F)(F)C(F)(F)F` [Example B-0046], the “P38 alpha kinase % inhib @ conc.” value is 96.0% @ 1.0 uM.

Still in this assay, the particulars now being: @ 1.0 uM; read-out: P38 alpha kinase % inhib @ conc.
With `N#Cc1ccccc1S(=O)(=O)NCc1[nH]nc(-c2ccc(F)cc2)c1-c1ccncc1` [Example B-0127], the inhibition at 1 µM came out at 82%.
In the case of `O=[N+]([O-])c1ccccc1S(=O)(=O)NCc1[nH]nc(-c2ccc(F)cc2)c1-c1ccncc1` [Example B-0113], the inhibition at 1 µM is 75%.
Consider `O=[N+]([O-])c1ccccc1CS(=O)(=O)NCc1[nH]nc(-c2ccc(F)cc2)c1-c1ccncc1` [Example B-0112], for which the inhibition at 1 µM is 97%.
Take `O=C(NCc1[nH]nc(-c2ccc(F)cc2)c1-c1ccncc1)c1ccccc1` [Example B-0063]: the inhibition at 1 µM came to 96%.
Regarding `Cc1cc(C)c(C(=O)NCc2[nH]nc(-c3ccc(F)cc3)c2-c2ccncc2)c(C)c1` [Example B-0049], the inhibition at 1 µM turned out to be 88%.
Still for that read-out and setting: then `COc1ccc(OC)c(S(=O)(=O)NCc2[nH]nc(-c3ccc(F)cc3)c2-c2ccncc2)c1` [Example B-0130], with 69%.
Take `O=C(NCc1[nH]nc(-c2ccc(F)cc2)c1-c1ccncc1)c1ccc(F)cc1C(F)(F)F` [Example B-0062]: the inhibition at 1 µM was found to be 94%.
In the case of `COc1cc(C)c(S(=O)(=O)NCc2[nH]nc(-c3ccc(F)cc3)c2-c2ccncc2)c(C)c1C` [Example B-0137], the inhibition at 1 µM was found to be 41%.

Still in this assay, the particulars now being: @ 10.0 uM; read-out: P38 alpha kinase % inhib @ conc.
As for `COc1ccccc1NC(=O)NCc1[nH]nc(-c2ccc(F)cc2)c1-c1ccncc1` [Example B-0166], the inhibition at 10 µM amounted to 45%.
With `O=C(NCc1[nH]nc(-c2ccc(F)cc2)c1-c1ccncc1)Nc1ccc(Cl)c(Cl)c1` [Example B-0173], the inhibition at 10 µM is 33%.
The same measure, in the same setting: then `CC(C)c1ccc(NC(=O)NCc2[nH]nc(-c3ccc(F)cc3)c2-c2ccncc2)cc1` [Example B-0178], with 12%; and `CCCCCCCCCCS(=O)(=O)NCc1[nH]nc(-c2ccc(F)cc2)c1-c1ccncc1` [Example B-0125], with 70%.

Still in this assay, the particulars now being: p38α in vitro, PHAS-I assay procedure; read-out: p38^1 IC50.
Turning to `O=C(O)CNc1[nH]nc(-c2ccc(F)cc2)c1-c1ccncc1` [Example A-293, N-[5-(4-fluorophenyl)-4-(4-pyridinyl)-1H-pyrazol-3-yl]glycine], the IC50 stood at 730 nM.
Take `OCCn1cc(-c2ccnc(NCc3ccc(F)cc3)c2)c(-c2ccc(F)cc2)n1` [Example A-289, 3-(4-fluorophenyl)-4-[2-[[(4-fluorophenyl)methyl]amino]-4-pyridinyl]-1H-pyrazole-1-ethanol]: the IC50 is under 100 nM.

Staying with this assay, now noted: read-out: P38 alpha kinase IC50.
For `CCS(=O)(=O)NC(Cc1ccccc1)c1[nH]nc(-c2ccc(F)cc2)c1-c1ccncc1` (stereo not drawn) [Example B-0717], the IC50 was 4300 nM.
As to `COc1cccc(C(=O)NC(C)c2[nH]nc(-c3ccc(F)cc3)c2-c2ccncc2)c1` (stereo not drawn) [Example B-0557], the IC50 came out at 1370 nM.
Same read-out and setting: then `O=C(O)CCc1[nH]nc(-c2ccc(F)cc2)c1-c1ccncc1` [Example C-135, 4-(4-(4-PYRIDYL)-3-(4-FLUOROPHENYL)PYRAZOLYL)PROPIONIC ACID], with 6000 nM; and `O=S(=O)(NCc1[nH]nc(-c2ccc(F)cc2)c1-c1ccncc1)c1cccc(Cl)c1` [Example B-0239], with 5730 nM; and `Cc1ccc(S(C)(=O)=O)cc1S(=O)(=O)N[C@H](C)c1[nH]nc(-c2ccc(F)cc2)c1-c1ccncc1` [Example B-0491], with 430 nM.
As to `C[C@@H](NC(=O)c1cnc2ccccc2n1)c1[nH]nc(-c2ccc(F)cc2)c1-c1ccncc1` [Example B-0384], the IC50 is 4020 nM.
With `C[C@@H](NC(=O)c1ccc(F)c(C(F)(F)F)c1)c1[nH]nc(-c2ccc(F)cc2)c1-c1ccncc1` [Example B-0512], the IC50 stood at 1000 nM.
With `C[C@@H](NC(=O)c1cccc(Cl)c1)c1[nH]nc(-c2ccc(F)cc2)c1-c1ccncc1` [Example B-0525], the IC50 was determined as 160 nM.
With `C[C@@H](NC(=O)Nc1ccccc1F)c1[nH]nc(-c2ccc(F)cc2)c1-c1ccncc1` [Example B-0410], the IC50 was determined as 380 nM.
Still for that read-out and setting: the value for `CC(C)(C)C(=O)NCc1[nH]nc(-c2ccc(F)cc2)c1-c1ccncc1` [Example B-0201] was 290 nM.
On to `CC(Oc1ccccc1)C(=O)N[C@H](C)c1[nH]nc(-c2ccc(F)cc2)c1-c1ccncc1` (stereo partly drawn) [Example B-0381], for which the IC50 is 220 nM.
Turning to `CC(NS(=O)(=O)c1ccccc1C#N)c1[nH]nc(-c2ccc(F)cc2)c1-c1ccncc1` (stereo not drawn) [Example B-0627], the IC50 came out at 250 nM.
Same read-out and setting: then `Cc1cc(C)c(C(=O)N[C@H](C)c2[nH]nc(-c3ccc(F)cc3)c2-c2ccncc2)c(C)c1` [Example B-0505], with 280 nM.
On the same count and under the same terms, the value for `C[C@@H](NS(=O)(=O)c1ccc(Cl)cc1Cl)c1[nH]nc(-c2ccc(F)cc2)c1-c1ccncc1` [Example B-0448] was 400 nM; that for `Cc1cccc(C(=O)N[C@H](C)c2[nH]nc(-c3ccc(F)cc3)c2-c2ccncc2)c1` [Example B-0515] was 420 nM.
On to `CC(NS(=O)(=O)c1ccc(-c2ccccc2)cc1)c1[nH]nc(-c2ccc(F)cc2)c1-c1ccncc1` (stereo not drawn) [Example B-0658], for which the IC50 is 1140 nM.
`C[C@@H](NS(=O)(=O)c1ccc(-c2ccon2)s1)c1[nH]nc(-c2ccc(F)cc2)c1-c1ccncc1` [Example B-0485]: the IC50 came out at 40 nM.
Turning to `N#Cc1cccc(C(=O)N2CCC(c3[nH]nc(-c4ccc(F)cc4)c3-c3ccncc3)CC2)c1` [Example B-1396], the IC50 turned out to be 550 nM.
Turning to `C[C@@H](NS(=O)(=O)c1ccc(Cl)s1)c1[nH]nc(-c2ccc(F)cc2)c1-c1ccncc1` [Example B-0473], the IC50 stood at 4 nM.
Take `COc1cccc(C(=O)N[C@H](C)c2[nH]nc(-c3ccc(F)cc3)c2-c2ccncc2)c1` [Example B-0380]: the IC50 came to 1410 nM.
Take `CC(NS(=O)(=O)CC12CCC(CC1=O)C2(C)C)c1[nH]nc(-c2ccc(F)cc2)c1-c1ccncc1` (stereo not drawn) [Example B-0435]: the IC50 came to 300 nM.
The same measure, in the same setting: the value for `CS(=O)(=O)NC(Cc1ccccc1)c1[nH]nc(-c2ccc(F)cc2)c1-c1ccncc1` (stereo not drawn) [Example B-0763] was 15 nM; that for `O=C(NCc1[nH]nc(-c2ccc(F)cc2)c1-c1ccncc1)c1cc(F)ccc1F` [Example B-0295] was 820 nM.
`O=C(NCc1[nH]nc(-c2ccc(F)cc2)c1-c1ccncc1)c1ccccc1F` [Example B-0297]: the IC50 amounted to 780 nM.
For the compound `Cc1ccc(C(=O)NC(C)c2[nH]nc(-c3ccc(F)cc3)c2-c2ccncc2)cc1` (stereo not drawn) [Example B-0551], the IC50 came out at 1080 nM.
Take `CC1(C)C2CCC1(CS(=O)(=O)NCc1[nH]nc(-c3ccc(F)cc3)c1-c1ccncc1)C(=O)C2` (stereo not drawn) [Example B-0226]: the IC50 worked out at 74 nM.
On the same count and under the same terms, the value for `C[C@@H](NC(=O)c1cccc(C(F)(F)F)c1F)c1[nH]nc(-c2ccc(F)cc2)c1-c1ccncc1` [Example B-0510] was 690 nM.
